Experimental data published in ChEMBL document CHEMBL1201861, “Genomics of Drug Sensitity in Cancer screening data, Wellcome Trust Sanger Institute”.

Legend:
[1] = system: ChaGo-K-1; test: cells; assay type: functional, cell-based; settings: Homo sapiens;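 note: growth inhibition of ChaGo-K-1 cells, read out with a cell viability assay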
Description: SANGER: Inhibition of human ChaGo-K-1 cell growth in a cell viability assay.

[2] = system: ESS-1; test: cells; assay type: functional, cell-based; settings: Homo sapiens;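 note: growth inhibition of human ESS-1 cells, read out by a cell viability assay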
Description: SANGER: Inhibition of human ESS-1 cell growth in a cell viability assay.

[3] = system: G-402; test: cells; assay type: functional, cell-based; settings: Homo sapiens
Description: SANGER: Inhibition of human G-402 cell growth in a cell viability assay.

[4] = system: GCT; test: cells; assay type: functional, cell-based; settings: Homo sapiens;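 note: GCT cell line proliferation inhibition, read out with a cell viability assay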
Description: SANGER: Inhibition of human GCT cell growth in a cell viability assay.

[5] = system: GP5d; test: cells; assay type: functional, cell-based; settings: Homo sapiens;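 note: growth inhibition of human GP5d cells, read out with a cell viability assay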
Description: SANGER: Inhibition of human GP5d cell growth in a cell viability assay.

[6] = system: H4; test: cells; assay type: functional, cell-based; settings: Homo sapiens
Description: SANGER: Inhibition of human H4 cell growth in a cell viability assay.

[7] = system: HCT-116; test: cells; assay type: functional, cell-based; settings: Homo sapiens
Description: SANGER: Inhibition of human HCT-116 cell growth in a cell viability assay.

[8] = system: HGC-27; test: cells; assay type: functional, cell-based; settings: Homo sapiens;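 note: growth inhibition of human HGC-27 cells, read out in a cell viability assay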
Description: SANGER: Inhibition of human HGC-27 cell growth in a cell viability assay.

[9] = system: HMV-2 cell line; test: cells; assay type: functional, cell-based; settings: Homo sapiens;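 note: growth inhibition of HMV-II cells, read out with a cell viability assay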
Description: SANGER: Inhibition of human HMV-II cell growth in a cell viability assay.

[10] = system: HO-1-N-1; test: cells; assay type: functional, cell-based; settings: Homo sapiens;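 note: growth inhibition of human HO-1-N-1 cells, read out with a cell viability assay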
Description: SANGER: Inhibition of human HO-1-N-1 cell growth in a cell viability assay.

[11] = system: HPAF-II; test: cells; assay type: functional, cell-based; settings: Homo sapiens;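 note: growth inhibition of HPAF-II cells, read out with a cell viability assay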
Description: SANGER: Inhibition of human HPAF-II cell growth in a cell viability assay.

[12] = system: HSC-2; test: cells; assay type: functional, cell-based; settings: Homo sapiens;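 note: growth inhibition of human HSC-2 cells, read out by a cell viability assay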
Description: SANGER: Inhibition of human HSC-2 cell growth in a cell viability assay.

[13] = system: HT-1376; test: cells; assay type: functional, cell-based; settings: Homo sapiens
Description: SANGER: Inhibition of human HT-1376 cell growth in a cell viability assay.

[14] = system: Huh-7; test: cells; assay type: functional, cell-based; settings: Homo sapiens;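 note: HuH-7 cell growth inhibition, read out with a cell viability assay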
Description: SANGER: Inhibition of human HuH-7 cell growth in a cell viability assay.

[15] = system: KYSE-450; test: cells; assay type: functional, cell-based; settings: Homo sapiens;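 note: cell growth inhibition measured by a viability assay in human KYSE-450 cells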
Description: SANGER: Inhibition of human KYSE-450 cell growth in a cell viability assay.

[16] = system: KYSE-520 cell line; test: cells; assay type: functional, cell-based; settings: Homo sapiens;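 note: growth inhibition of human KYSE-520 cells, read out with a viability assay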
Description: SANGER: Inhibition of human KYSE-520 cell growth in a cell viability assay.

[17] = system: LU-99A; test: cells; assay type: functional, cell-based; settings: Homo sapiens;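 note: growth inhibition of LU-99A cells, read out with a cell viability assay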
Description: SANGER: Inhibition of human LU-99A cell growth in a cell viability assay.

[18] = system: M14; test: cells; assay type: functional, cell-based; settings: Homo sapiens;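 note: growth inhibition of M14 cells, read out with a cell viability assay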
Description: SANGER: Inhibition of human M14 cell growth in a cell viability assay.

[19] = system: MFE-280; test: cells; assay type: functional, cell-based; settings: Homo sapiens;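 note: growth inhibition of MFE-280 cells, determined with a cell viability readout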
Description: SANGER: Inhibition of human MFE-280 cell growth in a cell viability assay.

[20] = system: MKN-45; test: cells; assay type: functional, cell-based; settings: Homo sapiens;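 note: growth inhibition of human MKN-45 cells, measured with a cell viability assay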
Description: SANGER: Inhibition of human MKN45 cell growth in a cell viability assay.

[21] = system: NB12; test: cells; assay type: functional, cell-based; settings: Homo sapiens;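 note: growth inhibition of human NB12 cells, read out by a cell viability assay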
Description: SANGER: Inhibition of human NB12 cell growth in a cell viability assay.

[22] = system: NCI-H1437; test: cells; assay type: functional, cell-based; settings: Homo sapiens;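 note: growth inhibition of human NCI-H1437 cells, read out by a cell viability assay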
Description: SANGER: Inhibition of human NCI-H1437 cell growth in a cell viability assay.

[23] = system: NCI-H1651; test: cells; assay type: functional, cell-based; settings: Homo sapiens;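 note: Read-out is a cell viability assay, with IC50 expressing inhibition of NCI-H1651 cell growth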
Description: SANGER: Inhibition of human NCI-H1651 cell growth in a cell viability assay.

[24] = system: NCI-H1755; test: cells; assay type: functional, cell-based; settings: Homo sapiens;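 note: cell viability readout used to measure growth inhibition of NCI-H1755 cells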
Description: SANGER: Inhibition of human NCI-H1755 cell growth in a cell viability assay.

[25] = system: NCI-H1792; test: cells; assay type: functional, cell-based; settings: Homo sapiens;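 note: growth inhibition of human NCI-H1792 cells, read out as cell viability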
Description: SANGER: Inhibition of human NCI-H1792 cell growth in a cell viability assay.

[26] = system: NCI-H2087; test: cells; assay type: functional, cell-based; settings: Homo sapiens;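 note: growth inhibition determined with a cell viability readout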
Description: SANGER: Inhibition of human NCI-H2087 cell growth in a cell viability assay.

[27] = system: NCI-H2122; test: cells; assay type: functional, cell-based; settings: Homo sapiens;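 note: growth inhibition of the cells, read out with a cell viability assay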
Description: SANGER: Inhibition of human NCI-H2122 cell growth in a cell viability assay.

[28] = system: NCI-H2452; test: cells; assay type: functional, cell-based; settings: Homo sapiens;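 note: growth inhibition of NCI-H2452 cells, read out with a cell viability assay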
Description: SANGER: Inhibition of human NCI-H2452 cell growth in a cell viability assay.

[29] = system: NCI-H28; test: cells; assay type: functional, cell-based; settings: Homo sapiens;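 note: growth inhibition of human NCI-H28 cells, read out as cell viability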
Description: SANGER: Inhibition of human NCI-H28 cell growth in a cell viability assay.

[30] = system: NCI-H460; test: cells; assay type: functional, cell-based; settings: Homo sapiens;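 note: cell viability assay scoring growth inhibition of human NCI-H460 cells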
Description: SANGER: Inhibition of human NCI-H460 cell growth in a cell viability assay.

[31] = system: NCI-H661; test: cells; assay type: functional, cell-based; settings: Homo sapiens;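 note: cell viability assay read-out, IC50 being the concentration that inhibits growth of the cells by half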
Description: SANGER: Inhibition of human NCI-H661 cell growth in a cell viability assay.

[32] = system: RCM-1; test: cells; assay type: functional, cell-based; settings: Homo sapiens;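 note: growth inhibition of the RCM-1 line, determined with a cell viability readout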
Description: SANGER: Inhibition of human RCM-1 cell growth in a cell viability assay.

[33] = system: SCC-9; test: cells; assay type: functional, cell-based; settings: Homo sapiens;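 note: Read-out is a cell viability assay, with values giving inhibition of cell growth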
Description: SANGER: Inhibition of human SCC-9 cell growth in a cell viability assay.

[34] = system: SK-LU-1; test: cells; assay type: functional, cell-based; settings: Homo sapiens;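 note: cell viability assay measuring growth inhibition of human SK-LU-1 cells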
Description: SANGER: Inhibition of human SK-LU-1 cell growth in a cell viability assay.

[35] = system: SK-MEL-28; test: cells; assay type: functional, cell-based; settings: Homo sapiens;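 note: growth inhibition of human SK-MEL-28 cells, read out with a cell viability assay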
Description: SANGER: Inhibition of human SK-MEL-28 cell growth in a cell viability assay.

[36] = system: SK-MES-1; test: cells; assay type: functional, cell-based; settings: Homo sapiens;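 note: growth inhibition of human SK-MES-1 cells, read out with a cell viability assay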
Description: SANGER: Inhibition of human SK-MES-1 cell growth in a cell viability assay.

[37] = system: SKG-IIIa; test: cells; assay type: functional, cell-based; settings: Homo sapiens;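 note: cell growth inhibition, read out with a cell viability assay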
Description: SANGER: Inhibition of human SKG-IIIa cell growth in a cell viability assay.

[38] = system: SW1783; test: cells; assay type: functional, cell-based; settings: Homo sapiens
Description: SANGER: Inhibition of human SW1783 cell growth in a cell viability assay.

[39] = system: SiHa; test: cells; assay type: functional, cell-based; settings: Homo sapiens;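 note: Viability-based readout of growth inhibition in SiHa cells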
Description: SANGER: Inhibition of human SiHa cell growth in a cell viability assay.

[40] = system: T84; test: cells; assay type: functional, cell-based; settings: Homo sapiens;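 note: growth inhibition measured with a cell viability readout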
Description: SANGER: Inhibition of human T84 cell growth in a cell viability assay.

[41] = system: T98G; test: cells; assay type: functional, cell-based; settings: Homo sapiens;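 note: growth inhibition of T98G cells, read out by a cell viability assay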
Description: SANGER: Inhibition of human T98G cell growth in a cell viability assay.

[42] = system: A-427; test: cells; assay type: functional, cell-based; settings: Homo sapiens;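 note: growth inhibition of human A-427 cells, read out by a cell viability assay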
Description: SANGER: Inhibition of human A427 cell growth in a cell viability assay.

[43] = system: BEN; test: cells; assay type: functional, cell-based; settings: Homo sapiens;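 note: growth inhibition of the BEN cell line, read out with a cell viability assay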
Description: SANGER: Inhibition of human BEN cell growth in a cell viability assay.

[44] = system: BXPC-3; test: cells; assay type: functional, cell-based; settings: Homo sapiens;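 note: growth inhibition of human BxPC-3 cells, read out by a cell viability assay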
Description: SANGER: Inhibition of human BxPC-3 cell growth in a cell viability assay.

[45] = system: CAL-33; test: cells; assay type: functional, cell-based; settings: Homo sapiens;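 note: growth inhibition of CAL-33 cells, read out with a cell viability assay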
Description: SANGER: Inhibition of human CAL-33 cell growth in a cell viability assay.

[46] = system: U2OS; test: cells; assay type: functional, cell-based, U-2-OS; settings: Homo sapiens;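 note: growth inhibition of human U-2-OS cells, determined with a cell viability assay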
Description: SANGER: Inhibition of human U-2-OS cell growth in a cell viability assay.

[47] = system: CAPAN-1; test: cells; assay type: functional, cell-based; settings: Homo sapiens;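 note: growth suppression of CAPAN-1 cells, read out by a cell viability assay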
Description: SANGER: Inhibition of human CAPAN-1 cell growth in a cell viability assay.

[48] = system: D-542MG; test: cells; assay type: functional, cell-based; settings: Homo sapiens
Description: SANGER: Inhibition of human D-542MG cell growth in a cell viability assay.

[49] = system: EVSA-T; test: cells; assay type: functional, cell-based, Homo sapiens; settings: Homo sapiens, EVSA-T;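 note: growth inhibition of EVSA-T cells, read out with a cell viability assay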
Description: SANGER: Inhibition of human EVSA-T cell growth in a cell viability assay.

[50] = system: L-540; test: cells; assay type: functional, cell-based, Homo sapiens; settings: Homo sapiens, L-540;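 note: growth inhibition of the human L-540 cell line, read out with a viability assay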
Description: SANGER: Inhibition of human L-540 cell growth in a cell viability assay.

[51] = system: NCCIT; test: SANGER: Inhibition of human NCCIT cell growth in a cell viability assay.; assay type: functional, cell-based; settings: Homo sapiens, NCCIT
[52] = system: NCI-H2141; test: cells; assay type: functional, cell-based, Homo sapiens; settings: Homo sapiens, NCI-H2141;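 note: growth inhibition of human NCI-H2141 cells, read out with a cell viability assay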
Description: SANGER: Inhibition of human NCI-H2141 cell growth in a cell viability assay.

[53] = system: NCI-H2171; test: cells; assay type: functional, cell-based, Homo sapiens; settings: Homo sapiens, NCI-H2171;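 note: growth inhibition of human NCI-H2171 cells, read out by a cell viability assay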
Description: SANGER: Inhibition of human NCI-H2171 cell growth in a cell viability assay.

[54] = system: PF-382; test: cells; assay type: functional, cell-based, Homo sapiens; settings: Homo sapiens, PF-382
Description: SANGER: Inhibition of human PF-382 cell growth in a cell viability assay.

[55] = system: REH; test: cells; assay type: functional, cell-based, Homo sapiens; settings: Homo sapiens, REH;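 note: growth inhibition of REH cells determined with a cell viability read-out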
Description: SANGER: Inhibition of human REH cell growth in a cell viability assay.

[56] = system: SCLC-21H; test: cells; assay type: functional, cell-based, Homo sapiens; settings: Homo sapiens, SCLC-21H;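 note: growth inhibition of cultured human SCLC-21H cells, read out with a cell viability assay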
Description: SANGER: Inhibition of human SCLC-21H cell growth in a cell viability assay.

[57] = system: SIG-M5; test: cells; assay type: functional, cell-based, Homo sapiens; settings: Homo sapiens, SIG-M5;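 note: cell viability assay read-out, measuring how strongly growth of cultured human SIG-M5 cells is inhibited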
Description: SANGER: Inhibition of human SIG-M5 cell growth in a cell viability assay.

[58] = system: SIMA; test: cells; assay type: functional, cell-based, Homo sapiens; settings: Homo sapiens, SIMA
Description: SANGER: Inhibition of human SIMA cell growth in a cell viability assay.

[59] = system: TE-15; test: cells; assay type: functional, cell-based, Homo sapiens; settings: Homo sapiens, TE-15
Description: SANGER: Inhibition of human TE-15 cell growth in a cell viability assay.

[60] = system: TUR; test: cells; assay type: functional, cell-based, Homo sapiens; settings: Homo sapiens, TUR
Description: SANGER: Inhibition of human TUR cell growth in a cell viability assay.

[61] = system: CHP-126; test: cells; assay type: functional, cell-based, Homo sapiens; settings: Homo sapiens, CHP-126
Description: SANGER: Inhibition of human CHP-126 cell growth in a cell viability assay.

Question: Which IC50 [1] does the source give for O=C1NC(=O)c2c1c(-c1ccccc1Cl)cc1[nH]c3ccc(O)cc3c21 here?
Answer: The IC50 was over 2000 nM.

Question: And the IC50 [2]?
Answer: The IC50 was over 2000 nM.

Question: What about the IC50 [3] of the same molecule?
Answer: Its IC50 is over 2000 nM.

Question: And the IC50 [4]?
Answer: The IC50 was over 2000 nM.

Question: And the IC50 [5]?
Answer: The IC50 was over 2000 nM.

Question: What about the IC50 [6] of the same molecule?
Answer: The IC50 was 953 nM.

Question: And the IC50 [7]?
Answer: Its IC50 is over 2000 nM.

Question: And the IC50 [8]?
Answer: The IC50 was over 2000 nM.

Question: And the IC50 [9]?
Answer: Its IC50 is over 2000 nM.

Question: And the IC50 [10]?
Answer: Its IC50 is 1390 nM.

Question: What about the IC50 [11] of the same molecule?
Answer: The IC50 was over 2000 nM.

Question: What about the IC50 [12] of the same molecule?
Answer: The IC50 was over 2000 nM.

Question: And the IC50 [13]?
Answer: The IC50 was over 2000 nM.

Question: What about the IC50 [14] of the same molecule?
Answer: The IC50 was over 2000 nM.

Question: What about the IC50 [15] of the same molecule?
Answer: The IC50 was over 2000 nM.

Question: What about the IC50 [16] of the same molecule?
Answer: Its IC50 is over 2000 nM.

Question: What about the IC50 [17] of the same molecule?
Answer: Its IC50 is over 2000 nM.

Question: What about the IC50 [18] of the same molecule?
Answer: Its IC50 is 1690 nM.

Question: What about the IC50 [19] of the same molecule?
Answer: The IC50 was over 2000 nM.

Question: What about the IC50 [20] of the same molecule?
Answer: The IC50 was 852 nM.

Question: What about the IC50 [21] of the same molecule?
Answer: The IC50 was over 2000 nM.

Question: What about the IC50 [22] of the same molecule?
Answer: Its IC50 is over 2000 nM.

Question: And the IC50 [23]?
Answer: Its IC50 is over 2000 nM.

Question: And the IC50 [24]?
Answer: The IC50 was over 2000 nM.

Question: And the IC50 [25]?
Answer: The IC50 was over 2000 nM.

Question: And the IC50 [26]?
Answer: Its IC50 is over 2000 nM.

Question: What about the IC50 [27] of the same molecule?
Answer: The IC50 was over 2000 nM.

Question: And the IC50 [28]?
Answer: Its IC50 is over 2000 nM.

Question: And the IC50 [29]?
Answer: Its IC50 is over 2000 nM.

Question: What about the IC50 [30] of the same molecule?
Answer: The IC50 was over 2000 nM.

Question: What about the IC50 [31] of the same molecule?
Answer: Its IC50 is over 2000 nM.

Question: And the IC50 [32]?
Answer: The IC50 was over 2000 nM.

Question: What about the IC50 [33] of the same molecule?
Answer: The IC50 was over 2000 nM.

Question: What about the IC50 [34] of the same molecule?
Answer: Its IC50 is 1000 nM.

Question: What about the IC50 [35] of the same molecule?
Answer: The IC50 was over 2000 nM.

Question: What about the IC50 [36] of the same molecule?
Answer: Its IC50 is 1720 nM.

Question: And the IC50 [37]?
Answer: Its IC50 is over 2000 nM.

Question: And the IC50 [38]?
Answer: Its IC50 is over 2000 nM.

Question: And the IC50 [39]?
Answer: The IC50 was over 2000 nM.

Question: And the IC50 [40]?
Answer: Its IC50 is over 2000 nM.

Question: And the IC50 [41]?
Answer: Its IC50 is over 2000 nM.

Question: What about the IC50 [42] of the same molecule?
Answer: Its IC50 is over 2000 nM.

Question: And the IC50 [43]?
Answer: Its IC50 is over 2000 nM.

Question: And the IC50 [44]?
Answer: The IC50 was over 2000 nM.

Question: What about the IC50 [45] of the same molecule?
Answer: The IC50 was over 2000 nM.

Question: And the IC50 [46]?
Answer: The IC50 was 1270 nM.

Question: And the IC50 [47]?
Answer: Its IC50 is over 2000 nM.

Question: Which results are given for NC(=O)Nc1cc(-c2cccc(F)c2)sc1C(=O)N[C@H]1CCCNC1 [AZD-7762]?
Answer: IC50 [1]: 325 nM; IC50 [48]: > 2000 nM; IC50 [2]: 164 nM; IC50 [3]: 64.6 nM; IC50 [4]: 649 nM; IC50 [5]: 412 nM; IC50 [6]: 221 nM; IC50 [7]: 1420 nM; IC50 [8]: 491 nM; IC50 [9]: > 2000 nM; IC50 [10]: 1140 nM; IC50 [11]: 970 nM; IC50 [12]: 873 nM; IC50 [13]: > 2000 nM; IC50 [14]: 1400 nM; IC50 [15]: 1050 nM; IC50 [16]: 826 nM; IC50 [17]: > 2000 nM; IC50 [18]: 145 nM; IC50 [19]: > 2000 nM; IC50 [20]: 280 nM; IC50 [21]: > 2000 nM; IC50 [22]: > 2000 nM; IC50 [23]: 1090 nM; IC50 [24]: 273 nM; IC50 [25]: 942 nM; IC50 [26]: > 2000 nM; IC50 [27]: 123 nM; IC50 [28]: 936 nM; IC50 [29]: 297 nM; IC50 [30]: 1530 nM; IC50 [31]: 637 nM; IC50 [32]: 993 nM; IC50 [33]: 1990 nM; IC50 [34]: 84.2 nM; IC50 [35]: > 2000 nM; IC50 [36]: 443 nM; IC50 [37]: 650 nM; IC50 [38]: 933 nM; IC50 [39]: 859 nM; IC50 [40]: > 2000 nM; IC50 [41]: 246 nM; IC50 [42]: 198 nM; IC50 [43]: > 2000 nM; IC50 [44]: 1310 nM; IC50 [45]: 984 nM; IC50 [46]: 158 nM; IC50 [47]: > 2000 nM

Question: Which results are given for CC(C)C[C@H](NC(=O)[C@H](Cc1ccccc1)NC(=O)c1cnccn1)B(O)O [BORTEZOMIB]?
Answer: IC50 [48]: 0.329 nM; IC50 [49]: 3.6 nM; IC50 [50]: 1.37 nM; IC50 [21]: 1.56 nM; IC50 [51]: 18.4 nM; IC50 [52]: 4.05 nM; IC50 [53]: > 20 nM; IC50 [54]: 1.47 nM; IC50 [55]: > 20 nM; IC50 [56]: > 20 nM; IC50 [57]: > 20 nM; IC50 [58]: > 20 nM; IC50 [59]: 3.43 nM; IC50 [60]: > 20 nM; IC50 [61]: 5.06 nM
